Results from patent US20230310542A1, “EPIGENETIC MODIFIERS TO TREAT RETINAL DEGENERATIONS” (priority 2022, published 2023).

Key:
Assay type in all cases: in vivo, mouse
WT mice retina = experiment: RNA-seq of PN24 retina, WT mice; conditions: GSK PN9 till PN24 vs saline; FDR<0.05, fold change >2 or <0.5
Protocol: RNA was extracted from PN24 retina of WT and rd10 animals treated with saline or GSK from PN9 till PN24. RNA integrity number (RIN) was measured using BioAnalyzer (Agilent Technologies) RNA 6000 Nano Kit to confirm RIN above 7 for each sample. The cDNA libraries were prepared using the Illumina® Stranded mRNA Prep, Ligation kit (Illumina) as per the manufacturer's instructions. Briefly, polyA RNA was purified from 200 ng of total RNA using oligo (dT) beads. The extracted mRNA fraction was subjected to fragmentation, reverse transcription, end repair, 3′— end adenylation, and adaptor ligation, followed by PCR amplification and SPRI bead purification (Beckman Coulter). […] The final product was assessed for its size distribution and concentration using BioAnalyzer High Sensitivity DNA Kit (Agilent Technologies). […] De-multiplexed and adapter-trimmed sequencing reads were generated using Illumina bcl2fastq (released version 2.20.0) allowing no mismatches in the index read. […] Next, alignment of the filtered reads to the mouse reference genome (mouse Ensembl release 67 (GRCm37/NCBIM37/mm9)) was done using HISAT2 (version 2.1.0) applying --no-mixed and --no-discordant options. Read counts were calculated using HTSeq by supplementing Ensembl gene annotation (release 67: “Mus_musculus.Ensembl.NCBIM37.67.gtf”). […]

rd10 mice = experiment: Rod photoreceptor preservation in rd10 mice (photoreceptor rows in ONL, immunofluorescence)
Protocol: All inhibitors were diluted in 0.9% bacteriostatic sodium chloride (saline).
Retinas were fixed in 4% paraformaldehyde overnight at 4° C., washed in PBS, incubated in 5% sucrose/PBS for 30 min and then cryopreserved in 20% sucrose/PBS overnight at 4° C. Retinas were embedded in 2:1 mix of 20% sucrose and OCT (Sakura Finetek Torrance, CA) and stored at −80° C. Blocks with tissue samples were sectioned to 7-10 μm on a Cryostat Microtome HM550 (Thermo Fisher Scientific) and stored at −20° C. Antigen retrieval was performed by incubating the slides in 10 mM sodium citrate pH 6 for 30 min at 80° C. Double labeling immunohistochemistry was performed using fluorescent Alexa Fluor-conjugated secondary antibodies diluted 1:800 (Invitrogen, Carlsbad, California). Primary antibodies were diluted as follow: anti-H3K4me2 1:600, anti-H3K9me2 1:600, anti-RHO 1:50, anti-OPN1SW 1:400, anti-GFAP 1:1000, anti-IBA1 1:450 (AifI gene). […] The acquisition parameters were maintained constant for each set of experiments. Fluorescence intensity was assessed using ImageJ software (Bethesda, MD).

rod nuclei = experiment: Number of heterochromatin foci in rod nuclei, rd10 mice; conditions: rd10 + GSK, PN24
rd10 mice retina = experiment: RNA-seq of PN24 retina, rd10 mice
Protocol: RNA was extracted from PN24 retina of WT and rd10 animals treated with saline or GSK from PN9 till PN24. RNA integrity number (RIN) was measured using BioAnalyzer (Agilent Technologies) RNA 6000 Nano Kit to confirm RIN above 7 for each sample. The cDNA libraries were prepared using the Illumina® Stranded mRNA Prep, Ligation kit (Illumina) as per the manufacturer's instructions. Briefly, polyA RNA was purified from 200 ng of total RNA using oligo (dT) beads. The extracted mRNA fraction was subjected to fragmentation, reverse transcription, end repair, 3′— end adenylation, and adaptor ligation, followed by PCR amplification and SPRI bead purification (Beckman Coulter). The unique dual index sequences (IDT® for Illumina® RNA UD Indexes Set A, Ligation, Illumina) were incorporated in the adaptors for multiplexed high-throughput sequencing. The final product was assessed for its size distribution and concentration using BioAnalyzer High Sensitivity DNA Kit (Agilent Technologies). The libraries were pooled and diluted to 3 nM using 10 mM Tris-HCl, pH 8.5, and then denatured using the Illumina protocol. The denatured libraries were loaded onto an S1 flow cell on an Illumina NovaSeq 6000 (Illumina) and run for 2×53 cycles according to the manufacturer's instructions. De-multiplexed and adapter-trimmed sequencing reads were generated using Illumina bcl2fastq (released version 2.20.0) allowing no mismatches in the index read. BBDuk was used to trim/filter low-quality sequences using “qtrim=lr trimq=10 maq=10” option. Next, alignment of the filtered reads to the mouse reference genome (mouse Ensembl release 67 (GRCm37/NCBIM37/mm9)) was done using HISAT2 (version 2.1.0) applying --no-mixed and --no-discordant options. Read counts were calculated using HTSeq by supplementing Ensembl gene annotation (release 67: “Mus_musculus.Ensembl.NCBIM37.67.gtf”). The edgeR R package was used to fit the read counts to the negative binomial model along with the generalized linear model (GLM) and differentially expressed genes were determined by the likelihood ratio test method implemented in the edgeR. […] The ggplot2 R package was used for generating heatmaps. Raw counts and differential expression analysis generated during this study are available at GEO Submission GSE169527.
The Database for Annotation, Visualization, and Integrated Discovery (DAVID) was used for GO functional analysis.

[1] = GSK PN9 till PN24 vs saline, FDR<0.05, fold change >2 or <0.5

O=C(O)c1ccc(CN2CCC(CN[C@@H]3C[C@H]3c3ccccc3)CC2)cc1 [GSK, GSK2879552]
number of genes downregulated (WT mice retina): 13 genes
number of genes upregulated (WT mice retina): 77 genes
rows of photoreceptors remaining in the ONL (rd10 mice; GSK 1.5 mg/kg i.p. daily, data not shown): 5-6 rows
RHO protein staining (rd10 mice; GSK 4.2 mg/kg PN9 till PN24, vs saline): increased
photoreceptor survival with dosing each second day (rd10 mice; GSK 4.2 mg/kg each second day (ESD), PN9 till PN24): survived to essentially the same extent as with treatment each day
rows of photoreceptors preserved in the ONL at PN24 (rd10 mice; GSK 4.2 mg/kg i.p. daily PN9 till PN24): more than 10 rows
rod degeneration at end of short treatment (rd10 mice; GSK from PN9 to PN17, examined at PN17): minimal degeneration
rod degeneration one week after ending treatment (rd10 mice; GSK from PN9 to PN17, examined at PN24): substantial loss of photoreceptors
rod degeneration 21 days after ending treatment (rd10 mice; GSK from PN9 to PN24, examined at PN45): substantial loss of cells
rod degeneration, late start of treatment (rd10 mice; GSK from PN15 to PN24, assayed at PN24): blocked further degeneration
rod nuclei with three foci (rod nuclei; untreated rd10 3%): 20%
rod nuclei with two foci (rod nuclei; untreated rd10 26%): 45%
rod nuclei with one focus (rod nuclei; untreated rd10 72%): 35%
number of genes downregulated (rd10 mice retina; [1]): 369 genes
number of genes upregulated (rd10 mice retina; [1]): 719 genes
genes simultaneously upregulated in rd10 and WT mice retina (rd10 mice retina; GSK, p<0.05, fold change >1.75 or <0.8): approximately 150 genes
expression of genes specific for rod photoreceptors (rd10 mice retina; rd10+GSK retina): returned to normal expression levels
IPA canonical pathways, upregulated (rd10 mice retina; rd10+GSK vs rd10): major upregulated pathway is the phototransduction pathway
IPA canonical pathways, down regulated (rd10 mice retina; rd10+GSK vs rd10, next 4 most important pathways): down regulated pathways were all related to neuroinflammation
expression of resident microglia markers (rd10 mice retina; rd10+GSK, Atp6v0d2, Mcoln3, Cd5l, Ctsd, C1qa, Fcrls, Hexb, Gpr34, Junb, Pclaf, Birc5): went back to normal levels of expression
expression of markers of infiltrating immune cells (rd10 mice retina; rd10+GSK, H2-Aa, cd74, H2-Ab1, H2-Eb1, Cx3cr1 and others): returned to normal levels of expression
expression of amacrine cell markers Clrn1 and Efemp1 (rd10 mice retina; rd10 under GSK inhibition): down-regulated
expression of cell death genes Capn9, Casp1, 12, AifI (rd10 mice retina; rd10 under GSK inhibition): downregulated
expression of Gfap (rd10 mice retina; rd10 under GSK inhibition, did not reach threshold conditions): decreased
